Assays:
[1] = test system: mold; assay: Comparative shelf-life study using pup loaves (white bread), days until visible mold
Description: Example 2. A comparative shelf-life study was performed using pup loaves by an ISO/IEC 17025:2017 certified laboratory, Great Plains Analytical Laboratory, Kansas City, MO, USA. A standard white bread dough formulation was prepared (pup loaves) for each test group. Approximately 500 grams of dry material was used to prepare 3 pup loaves per test group. Various preservatives, which were to act as mold inhibitors, were added to the doughs. The amount of preservatives added to each dough is reported as a weight percentage based on the mass of flour in the dough (“on flour”). Each mold inhibitor was thoroughly mixed into the formulation for each dough. The percentage inclusion and type of mold inhibitor on flour is outlined in Table 2. Three of the mold inhibitors were made with acetic and propionic acid produced from fermentation using a mixed consortium of naturally occurring microorganisms or microbiome using the methods previously described herein. […] The second and third comparative mold inhibitors were high-efficacy clean-label acetate/propionate mold inhibitors, with one having an acetate/propionate weight ratio of 1:1 (50 wt. % acetate/50 wt. % propionate) (BV1) and the other one having an acetate/propionate weight ratio of 1:6 (14 wt. % acetate/86 wt. % propionate) (BV2). […] The internal temperature of each loaf was recorded upon exiting the oven and prior to packaging (Table 3). In addition, water activity and pH were measured in one of the replicates for each group prior to baking using a water activity meter and a pH meter (Table 4). The product odor (similar to baseline or off odor development), color, and general appearance were evaluated daily. […]
Three sample loaves were produced using each of the inhibitor treatments, and the number of days until mold was observed was recorded for each loaf. […] No off-odors were detected over time in any of the treatments.

[2] = test system: mold; assay: Comparative shelf-life study using flour tortillas, days until visible mold
Description: Example 3. A comparative shelf-life study using flour tortillas was performed by an ISO/IEC 17025:2017 certified laboratory, Great Plains Analytical Laboratory, Kansas City, MO. The purpose of this study was to compare the efficacy of preservatives, which were to act as mold inhibitors, in a tortilla formulation. A total of 10 test groups of tortillas were prepared: 9 test groups contained various mold inhibitors and one test group served as control, without a mold inhibitor (no additive). Test groups were stored at ambient temperature for 30 days to determine the overall efficacy of the inhibitors and compare the performance of the inhibitors in the tortilla formulation. […]
After mixing the tortilla formulation ingredients with the corresponding mold inhibitor, samples of rounded dough were placed onto parchment paper and allowed to ferment for 20 minutes at 82±2° F. and 85% relative humidity. […] Water activity was measured using a water activity meter. […] The product odor (similar to baseline or off odor development), color, and general appearance were evaluated daily. […]
The results for the tortilla shelf-life study comparing the preservative/mold inhibitors treatments are graphically shown in FIG. 2. Three tortilla samples were produced using each of the inhibitor treatments, and the number of days until mold was observed was recorded for each sample. […]

[3] = Water activity and pH of bread dough prior to baking; assay type: physicochemical
Description: Example 2. A comparative shelf-life study was performed using pup loaves by an ISO/IEC 17025:2017 certified laboratory, Great Plains Analytical Laboratory, Kansas City, MO, USA. A standard white bread dough formulation was prepared (pup loaves) for each test group. Approximately 500 grams of dry material was used to prepare 3 pup loaves per test group. Various preservatives, which were to act as mold inhibitors, were added to the doughs. The amount of preservatives added to each dough is reported as a weight percentage based on the mass of flour in the dough (“on flour”). Each mold inhibitor was thoroughly mixed into the formulation for each dough. The percentage inclusion and type of mold inhibitor on flour is outlined in Table 2. Three of the mold inhibitors were made with acetic and propionic acid produced from fermentation using a mixed consortium of naturally occurring microorganisms or microbiome using the methods previously described herein. […] The second and third comparative mold inhibitors were high-efficacy clean-label acetate/propionate mold inhibitors, with one having an acetate/propionate weight ratio of 1:1 (50 wt. % acetate/50 wt. % propionate) (BV1) and the other one having an acetate/propionate weight ratio of 1:6 (14 wt. % acetate/86 wt. % propionate) (BV2). […] After mixing, the dough was divided into disposable bread pans and allowed to ferment for 3 hours at 86±1° F. and 60% relative humidity, proofed for 55 minutes at 109±1° F. and 90% humidity, and baked for 15 minutes at 425±1° F. This procedure was repeated for each test group for a total of 30 loaves of bread. The internal temperature of each loaf was recorded upon exiting the oven and prior to packaging (Table 3). In addition, water activity and pH were measured in one of the replicates for each group prior to baking using a water activity meter and a pH meter (Table 4). The product odor (similar to baseline or off odor development), color, and general appearance were evaluated daily. Each sample was opened and closed daily until visible mold appeared.

[4] = Water activity and pH of tortilla dough prior to baking; assay type: physicochemical
Description: After mixing the tortilla formulation ingredients with the corresponding mold inhibitor, samples of rounded dough were placed onto parchment paper and allowed to ferment for 20 minutes at 82±2° F. and 85% relative humidity. The dough was then pressed into a tortilla form, cooked, cooled, and packaged. This procedure was repeated for each test group. One replicate of dough for each group was tested prior to baking. Water activity was measured using a water activity meter. Measurements for pH were made using a pH meter. The product odor (similar to baseline or off odor development), color, and general appearance were evaluated daily. Each sample was opened and closed daily, until visible mold appeared.

[5] = Dough pH out of the mixer (Example 6); assay type: physicochemical
Description: Chemical testing included the evaluation of pH on the dough out of the mixer (Table 15). Measurement for pH was made using a pH meter. A bake score, height, and volume were recorded for each test group. The bake score examined the crust color, loaf symmetry, uniformity of the break and shred, crumb texture, crumb grain, crumb color, taste, and aroma. The pup loaves were evaluated for visible mold every day for the shelf-life portion of the study. A photograph of the visible mold was taken the day it was detected. The sensory analysis consisted of a quantitative descriptive analysis and a ranking performed by a trained panel. […] The descriptive analysis covered the crumb texture and flavor of the test groups. The sensory analysis was performed on Days 3, 6, 9, 12, and 15. No sensory analysis was performed on bread that had visible mold.
The temperature of the loaves out of the oven and prior to packaging were recorded in Table 14. Dough was removed from the mixing bowl and then analyzed for pH.

[6] = test system: mold; assay: Shelf-life study using pup loaves (Example 6), day of visible mold; conditions: ambient temperature
Description: Example 6. In another example, a comparative shelf-life and sensory study using pup loaves was performed by an ISO/IEC 17025:2017 certified laboratory, Great Plains Analytical Laboratory, Kansas City, MO. A total of seven test groups of white bread in a pup loaf formulation were prepared. […] Test groups were stored at ambient temperature for between 7 and 15 days to determine the overall efficacy of the inhibitors and compare the performance of the inhibitors in the bread formulation. Sensory analysis was performed examining the flavor and crumb texture for all samples. The studies were conducted concurrently.
A standard white bread dough formulation was prepared for each test group. Three pup loaves were prepared for each test group for the visual examination portion of the study. […] The bread was baked for 15 minutes at 425±1° F. Internal temperatures were recorded upon exiting the oven and prior to packaging. […]
Chemical testing included the evaluation of pH on the dough out of the mixer (Table 15). […] A bake score, height, and volume were recorded for each test group. […] The pup loaves were evaluated for visible mold every day for the shelf-life portion of the study. A photograph of the visible mold was taken the day it was detected. The sensory analysis consisted of a quantitative descriptive analysis and a ranking performed by a trained panel. […]

[7] = 0.3 wt. % on flour (order of Table 2)
[8] = 1 wt. % on flour (order of Table 2)

| SMILES | mold after day 30 up to day 45 ([1]; 1 wt. % on flour, bags no longer opened each day) | day visible mold developed (replicate loaves) ([1]; 1 wt. % on flour, stored 70-73 F, opened daily, 30-day study) [days] | days on which visible mold developed (replicates) ([2]; 1 wt. % on flour, 68-73 F, opened daily) [days] | mold after day 30 up to day 45 ([2]; 1 wt. %, remaining replicate, bags no longer opened) [days] | Water Activity [3, 7] | pH [3, 7] | Water Activity [3, 8] | pH [3, 8] | Water Activity [4, 7] | pH [4, 7] | Water Activity [4, 8] | pH [4, 8] | mold inhibitor performance ([1]; 0.3 wt. % on flour) | Dough pH ([5]; 0.5 wt. % mold inhibitor) | Dough pH ([5]; 0.8 wt. % mold inhibitor) | Day of Visible Mold ([6]; 0.5 wt. %) [days] | Day of Visible Mold ([6]; 0.8 wt. %) [days] |
| --- | --- | --- | --- | --- | --- | --- | --- | --- | --- | --- | --- | --- | --- | --- | --- | --- | --- |
| CCC(=O)[O-].CCC(=O)[O-].[Ca+2] [BV CP, calcium propionate] | no signs of mold growth or off odor at day 45 | > 30 | 30 | > 45 | 0.9535 | 5.65 | 0.9448 | 5.73 | 0.9548 | 6.98 | 0.9612 | 6.87 | – | – | – | – | – |
| CCC(=O)[O-].CCC(=O)[O-].[Ca+2] [CCP, calcium propionate, reference compound] | – | – | – | – | 0.9564 | 5.40 | – | – | 0.9502 | 6.7 | – | – | performed similar to the natural calcium propionate (BV CP) | 5.34 | 5.53 | 7 | 9 |

Source: patent US20240334941A1, “HIGH-EFFICACY NATURAL PRESERVATIVES” (BioVeritas, LLC, priority 2023, published 2024)
